According to patent publication US12091411B2, “IRAK degraders and uses thereof” (Kymera Therapeutics, Inc., priority 2022, dated 2024):
Like-named read-outs stand apart in the source and are kept apart here.

Target: T1, IRAK4 (Homo sapiens, UniProt Q9NWZ3)
T1 construct: Degradation of IRAK4 in OCI-LY10 was quantitatively measured using Meso Scale Discovery technology; endogenous in cells; host or cells: OCI-LY10
T1 sequence (Q9NWZ3 1-460): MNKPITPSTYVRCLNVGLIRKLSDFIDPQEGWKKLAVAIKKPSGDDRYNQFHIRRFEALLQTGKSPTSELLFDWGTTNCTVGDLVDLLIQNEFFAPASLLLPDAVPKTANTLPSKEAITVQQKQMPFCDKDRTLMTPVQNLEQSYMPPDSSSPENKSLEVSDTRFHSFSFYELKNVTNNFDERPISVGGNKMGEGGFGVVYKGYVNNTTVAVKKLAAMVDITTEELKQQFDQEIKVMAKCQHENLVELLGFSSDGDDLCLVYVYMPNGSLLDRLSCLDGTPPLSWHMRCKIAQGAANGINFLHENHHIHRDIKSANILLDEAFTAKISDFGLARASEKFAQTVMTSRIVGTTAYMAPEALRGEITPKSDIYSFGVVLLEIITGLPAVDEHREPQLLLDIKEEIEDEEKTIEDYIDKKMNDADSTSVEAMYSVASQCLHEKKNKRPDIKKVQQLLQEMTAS
Test: IRAK4 MSD Degradation in OCI-LY10
Type: cell-based
Settings: OCI-LY10 cells, MSD
In short: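 DC50, from a three-parameter logistic fit and reported as letter bins A (<0.01 μM), B, C, D (>0.2 μM or not tested), reflects IRAK4 loss measured by MSD electrochemiluminescence in OCI-LY10 lysates. Treatment: 8 doses, 1:3 steps, top 1 to 10 μM, 4 to 24 h, 37 °C.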

[1] = 4 hrs incubation, read-out: IRAK4 degradation in OCI-LY10 at 4 hrs: DC50
[2] = 24 hrs incubation, read-out: IRAK4 degradation in OCI-LY10 at 24 hrs: DC50

DC50 [1] | DC50 [2] | Structure (SMILES)
> 200 nM | > 200 nM | Cn1c(=O)n(C2CCC(=O)NC2=O)c2cccc(N3CCN(C[C@H]4CC[C@H](n5cc(NC(=O)c6cnn7cccnc67)c(C(F)F)n5)CC4)CC3)c21 (stereo partly shown) [I-403]
> 200 nM | > 200 nM | Cn1c(=O)n(C2CCC(=O)NC2=O)c2cccc(N3CCC4C(C3)OCCN4C[C@H]3CC[C@H](n4cc(NC(=O)c5cnn6cccnc56)c(C(F)F)n4)CC3)c21 (stereo partly shown) [I-404]
> 200 nM | > 200 nM | C[C@H]1CN(c2ccn3ncc(C(=O)Nc4cn([C@H]5CC[C@H](CN6CCN(CC#Cc7cccc8c7n(C)c(=O)n8C7CCC(=O)NC7=O)CC6)CC5)nc4C(F)F)c3n2)CCO1 (stereo partly shown) [I-405]
> 200 nM | < 10 nM | C[C@@H]1CN(c2ccn3ncc(C(=O)Nc4cn([C@H]5CC[C@H](CN6CCN(CC#Cc7cccc8c7n(C)c(=O)n8C7CCC(=O)NC7=O)CC6)CC5)nc4C(F)F)c3n2)CCO1 (stereo partly shown) [I-406]
> 200 nM | > 200 nM | Cn1c(=O)n(C2CCC(=O)NC2=O)c2cccc(C#CCN3CCN(C[C@H]4CC[C@H](n5cc(NC(=O)c6cnn7ccc(N8CCOC(C(F)F)C8)nc67)c(C(F)F)n5)CC4)CC3)c21 (stereo partly shown) [I-407]
> 200 nM | > 200 nM | Cn1c(=O)n(C2CCC(=O)NC2=O)c2cccc(C#CCN3CCN(C[C@H]4CC[C@H](n5cc(NC(=O)c6cnn7ccc(N8CCN(C(F)(F)F)CC8)nc67)c(C(F)F)n5)CC4)CC3)c21 (stereo partly shown) [I-408]
> 200 nM | > 200 nM | Cn1c(=O)n(C2CCC(=O)NC2=O)c2cccc(C#CCN3CCN(C[C@H]4CC[C@H](n5cc(NC(=O)c6cnn7ccc(N8CCN(CC(F)F)CC8)nc67)c(C(F)F)n5)CC4)CC3)c21 (stereo partly shown) [I-409]
> 200 nM | > 200 nM | Cn1c(=O)n(C2CCC(=O)NC2=O)c2cccc(C#CCN3CCN(C[C@H]4CC[C@H](n5cc(NC(=O)c6cnn7ccc(N8CCN(CC(F)(F)F)CC8)nc67)c(C(F)F)n5)CC4)CC3)c21 (stereo partly shown) [I-410]
> 200 nM | > 200 nM | CN1CCN(c2ccn3ncc(C(=O)Nc4cn([C@H]5CC[C@H](CN6CCN(CC#Cc7cccc8c7n(C)c(=O)n8C7CCC(=O)NC7=O)CC6)CC5)nc4C(F)F)c3n2)CC1C(F)F (stereo partly shown) [I-411]
> 200 nM | > 200 nM | CN1CCN(c2ccn3ncc(C(=O)Nc4cn([C@H]5CC[C@H](CN6CCN(CC#Cc7cccc8c7n(C)c(=O)n8C7CCC(=O)NC7=O)CC6)CC5)nc4C(F)F)c3n2)CC1C(F)(F)F (stereo partly shown) [I-412]
> 200 nM | > 200 nM | CN1CCC(c2ccn3ncc(C(=O)Nc4cn([C@H]5CC[C@H](CN6CCN(CC#Cc7cccc8c7n(C)c(=O)n8C7CCC(=O)NC7=O)CC6)CC5)nc4C(F)F)c3n2)C(F)(F)C1 (stereo partly shown) [I-413]
100 to 200 nM | > 200 nM | Cn1c(=O)n(C2CCC(=O)NC2=O)c2cccc(C#CCN3CCN(C[C@H]4CC[C@H](n5cc(NC(=O)c6cnn7ccc(N8CC(F)(F)C8)nc67)c(C(F)F)n5)CC4)CC3)c21 (stereo partly shown) [I-414]
> 200 nM | > 200 nM | Cn1c(=O)n(C2CCC(=O)NC2=O)c2cccc(-c3cc(CN4CCn5cc(-n6cc(NC(=O)c7cnn8cccnc78)c(C(F)F)n6)cc5C4)ncn3)c21 (stereo not shown) [I-415]
> 200 nM | > 200 nM | Cn1c(=O)n(C2CCC(=O)NC2=O)c2cccc(N3CCC(N4CCn5cc(-n6cc(NC(=O)c7cnn8cccnc78)c(C(F)F)n6)cc5C4)CC3)c21 (stereo not shown) [I-416]
> 200 nM | > 200 nM | Cn1c(=O)n(C2CCC(=O)NC2=O)c2cccc(-c3ccc(N4CCc5cc(-n6cc(NC(=O)c7cnn8cccnc78)c(C(F)F)n6)ccc5C4)nc3)c21 (stereo not shown) [I-417]
10 to 100 nM | > 200 nM | Cn1c(=O)n(C2CCC(=O)NC2=O)c2cccc(C#CCN3CCN(C[C@H]4CC[C@H](n5cc(NC(=O)c6cnn7ccc(N8CC[C@]9(CCOC9)C8)nc67)c(C(F)F)n5)CC4)CC3)c21 (stereo partly shown) [I-418]
10 to 100 nM | > 200 nM | Cn1c(=O)n(C2CCC(=O)NC2=O)c2cccc(C#CCN3CCN(C[C@H]4CC[C@H](n5cc(NC(=O)c6cnn7ccc(N8CC[C@@]9(CCOC9)C8)nc67)c(C(F)F)n5)CC4)CC3)c21 (stereo partly shown) [I-419]
> 200 nM | > 200 nM | Cn1c(=O)n(C2CCC(=O)NC2=O)c2cccc(C#CCOC3CCN([C@H]4CC[C@@H](n5cc(NC(=O)c6cnn7ccc(N8C[C@H]9C[C@@H]8CO9)nc67)c(C(F)F)n5)CC4)CC3)c21 (stereo partly shown) [I-420]
10 to 100 nM | > 200 nM | Cn1c(=O)n(C2CCC(=O)NC2=O)c2cccc(C#CCN3CCN([C@H]4CC[C@@H](n5cc(NC(=O)c6cnn7ccc(N8C[C@H]9C[C@@H]8CO9)nc67)c(C(F)F)n5)CC4)CC3)c21 (stereo partly shown) [I-421]

DC50 [1] | DC50 [2] | Structure (SMILES)
> 200 nM | > 200 nM | Cn1c(=O)n(C2CCC(=O)NC2=O)c2cccc(N3CCC(N4CCN([C@H]5CC[C@@H](n6cc(NC(=O)c7cnn8ccc(N9C[C@H]%10C[C@@H]9CO%10)nc78)c(C(F)F)n6)CC5)CC4)CC3)c21 (stereo partly shown) [I-422]
> 200 nM | > 200 nM | Cn1c(=O)n(C2CCC(=O)NC2=O)c2cccc(C3CCN(C4CCN(C5CCC(n6cc(NC(=O)c7cnn8ccc(N9C[C@H]%10C[C@@H]9CO%10)nc78)c(C(F)F)n6)CC5)CC4)CC3)c21 (stereo partly shown) [I-423]
> 200 nM | > 200 nM | Cn1c(=O)n(C2CCC(=O)NC2=O)c2cccc(N3CCN([C@H]4CC[C@@H](n5cc(NC(=O)c6cnn7ccc(N8C[C@H]9C[C@@H]8CO9)nc67)c(C(F)F)n5)CC4)CC3)c21 (stereo partly shown) [I-424]
10 to 100 nM | > 200 nM | Cn1c(=O)n(C2CCC(=O)NC2=O)c2cccc(C#CCN3CCN(C[C@H]4CC[C@H](n5cc(NC(=O)c6cnn7ccc(C8CCOC8)nc67)c(C(F)F)n5)CC4)CC3)c21 (stereo partly shown) [I-426]
> 200 nM | < 10 nM | C[C@H]1CN(c2ccn3ncc(C(=O)Nc4cn([C@H]5CC[C@H](CN(C)C6CCN(c7cccc8c7n(C)c(=O)n8C7CCC(=O)NC7=O)CC6)CC5)nc4C(F)F)c3n2)CCO1 (stereo partly shown) [I-427]
> 200 nM | < 10 nM | C[C@@H]1CN(c2ccn3ncc(C(=O)Nc4cn([C@H]5CC[C@H](CN(C)C6CCN(c7cccc8c7n(C)c(=O)n8C7CCC(=O)NC7=O)CC6)CC5)nc4C(F)F)c3n2)CCO1 (stereo partly shown) [I-428]
> 200 nM | > 200 nM | C[C@@H]1CN(c2ccn3ncc(C(=O)Nc4cn([C@H]5CC[C@H](CN6CCN(CC#Cc7cccc8c7n(C)c(=O)n8C7CCC(=O)NC7=O)CC6)CC5)nc4C(F)F)c3n2)C[C@H](C)O1 (stereo partly shown) [I-429]
> 200 nM | < 10 nM | C[C@H]1CN(c2ccn3ncc(C(=O)Nc4cn([C@H]5CC[C@H](CN6CCN(CC#Cc7cccc8c7n(C)c(=O)n8C7CCC(=O)NC7=O)CC6)CC5)nc4C(F)F)c3n2)C[C@H](C)O1 (stereo partly shown) [I-430]
> 200 nM | < 10 nM | C[C@@H]1CN(c2ccn3ncc(C(=O)Nc4cn([C@H]5CC[C@H](CN6CCN(CC#Cc7cccc8c7n(C)c(=O)n8C7CCC(=O)NC7=O)CC6)CC5)nc4C(F)F)c3n2)C[C@@H](C)O1 (stereo partly shown) [I-431]
> 200 nM | < 10 nM | [2H]C([2H])([2H])Oc1ccc2c(c1C1CCN(C[C@H]3CC[C@H](n4cc5cc(NC(=O)c6cccc(C(F)(F)F)n6)ncc5n4)CC3)CC1)n(C([2H])([2H])[2H])c(=O)n2C1CCC(=O)NC1=O (stereo partly shown) [I-432]
> 200 nM | < 10 nM | Cn1c(=O)n(C2CCC(=O)NC2=O)c2cccc(C#CCOC3CCN(C[C@H]4CC[C@H](n5cc(NC(=O)c6cnn7ccc(N8CCC(F)(F)CC8)nc67)c(C(F)F)n5)CC4)CC3)c21 (stereo partly shown) [I-433]
> 200 nM | < 10 nM | Cn1c(=O)n(C2CCC(=O)NC2=O)c2cccc(C#CCN3CCN(C[C@H]4CC[C@H](n5cc(NC(=O)c6cnn7ccc(N8CCC(F)(F)CC8)nc67)c(C(F)F)n5)CC4)CC3)c21 (stereo partly shown) [I-434]
> 200 nM | > 200 nM | O=C1CCN(c2cccc(C#CCN3CCN(C[C@H]4CC[C@@H](n5cc(NC(=O)c6cnn7ccc(N8CC9CCC(C8)O9)nc67)c(C(F)F)n5)CC4)CC3)c2)C(=O)N1 [I-435]
> 200 nM | > 200 nM | O=C1CCN(c2cccc(C#CCN3CCN(C[C@H]4CC[C@@H](n5cc(NC(=O)c6cnn7ccc(N8CC9CC(C8)O9)nc67)c(C(F)F)n5)CC4)CC3)c2)C(=O)N1 [I-436]
10 to 100 nM | > 200 nM | O=C1CCC(c2ccc(C#CCN3CCN(C[C@H]4CC[C@H](n5cc(NC(=O)c6cnn7ccc(N8C[C@H]9C[C@@H]8CO9)nc67)c(C(F)F)n5)CC4)CC3)cc2)C(=O)N1 (stereo partly shown) [I-437]
< 10 nM | > 200 nM | COc1cc2nn([C@H]3CC[C@H](CN4CCC(c5cccc6c5n(C)c(=O)n6C5CCC(=O)NC5=O)CC4)CC3)cc2cc1NC(=O)c1cncc(F)c1 (stereo partly shown) [I-439]
< 10 nM | < 10 nM | C[C@@H]1CN(c2ccn3ncc(C(=O)Nc4cn([C@H]5CC[C@H](CN(C)C6CCN(c7cccc8c7n(C)c(=O)n8C7CCC(=O)NC7=O)CC6)CC5)nc4C(F)F)c3n2)C[C@@H](C)O1 (stereo partly shown) [I-440]
< 10 nM | < 10 nM | C[C@H]1CN(c2ccn3ncc(C(=O)Nc4cn([C@H]5CC[C@H](CN(C)C6CCN(c7cccc8c7n(C)c(=O)n8C7CCC(=O)NC7=O)CC6)CC5)nc4C(F)F)c3n2)C[C@H](C)O1 (stereo partly shown) [I-441]
10 to 100 nM | < 10 nM | C[C@@H]1CN(c2ccn3ncc(C(=O)Nc4cn([C@H]5CC[C@H](CN(C)C6CCN(c7cccc8c7n(C)c(=O)n8C7CCC(=O)NC7=O)CC6)CC5)nc4C(F)F)c3n2)C[C@H](C)O1 (stereo partly shown) [I-442]
